Results taken from patent publication US20260053834A1, “COVALENT MODIFIERS OF AKT1 AND USES THEREOF” (Terremoto Biosciences, Inc., priority 2023, published 2026).

How the values were obtained:
[1] = tested on: LAPC4 prostate cancer cells, which express the AKT1 E17K allele; assay: Antiproliferative effects in LAPC4 cells (CellTiter Glo, 72 h); type: cell-based; conditions: Homo sapiens, LAPC4, 72 h, read-out: LAPC4 proliferation IC50: GeoMean IC50
Summary of the method: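 IC50 values come from Hill-equation fitting of luminescence (cellular ATP) after 72 h compound exposure. Treated wells held 1,000 cells each, with compound delivered as DMSO dilutions. Culture medium was IMDM plus 12% FBS.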

AKT1 WT = target: T1, AKT1 WT (Homo sapiens, UniProt P31749); assay: Live cell target engagement by NanoBRET competitive probe displacement, AKT1 WT; type: binding; conditions: transfected HEK293 cells, 2 h at 37° C., read-out: AKT1 WT IC50: GeoMean IC50
T1 construct: expressed in transfected cells; host or cells: HEK293

AKT1 E17K = target: T2, AKT1 E17K (Homo sapiens, UniProt P31749, E17K); assay: Live cell target engagement by NanoBRET competitive probe displacement, AKT1 E17K; type: binding; conditions: transfected HEK293 cells, 2 h at 37° C., read-out: AKT1 E17K IC50: GeoMean IC50
T2 construct: expressed in transfected cells; host or cells: HEK293

AKT2 = target: T3, AKT2 (Homo sapiens, UniProt P31751); assay: Live cell target engagement by NanoBRET competitive probe displacement, AKT2; type: binding; conditions: transfected HEK293 cells, 2 h at 37° C., read-out: AKT2 IC50: GeoMean IC50
T3 construct: expressed in transfected cells; host or cells: HEK293
T3 sequence (P31751 whole entry): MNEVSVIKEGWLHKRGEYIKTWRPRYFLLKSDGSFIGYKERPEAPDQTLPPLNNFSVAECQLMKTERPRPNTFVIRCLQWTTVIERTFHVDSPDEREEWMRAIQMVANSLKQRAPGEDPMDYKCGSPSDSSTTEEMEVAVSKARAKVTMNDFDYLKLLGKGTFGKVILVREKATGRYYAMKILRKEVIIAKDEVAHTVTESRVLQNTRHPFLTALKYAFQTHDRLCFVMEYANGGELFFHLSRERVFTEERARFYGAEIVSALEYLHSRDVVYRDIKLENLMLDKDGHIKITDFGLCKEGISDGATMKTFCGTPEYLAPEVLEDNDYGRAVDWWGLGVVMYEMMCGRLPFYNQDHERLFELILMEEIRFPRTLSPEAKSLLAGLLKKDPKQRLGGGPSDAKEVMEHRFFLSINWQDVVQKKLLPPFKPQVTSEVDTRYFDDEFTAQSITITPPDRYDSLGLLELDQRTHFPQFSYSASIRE

T1 sequence (P31749 whole entry): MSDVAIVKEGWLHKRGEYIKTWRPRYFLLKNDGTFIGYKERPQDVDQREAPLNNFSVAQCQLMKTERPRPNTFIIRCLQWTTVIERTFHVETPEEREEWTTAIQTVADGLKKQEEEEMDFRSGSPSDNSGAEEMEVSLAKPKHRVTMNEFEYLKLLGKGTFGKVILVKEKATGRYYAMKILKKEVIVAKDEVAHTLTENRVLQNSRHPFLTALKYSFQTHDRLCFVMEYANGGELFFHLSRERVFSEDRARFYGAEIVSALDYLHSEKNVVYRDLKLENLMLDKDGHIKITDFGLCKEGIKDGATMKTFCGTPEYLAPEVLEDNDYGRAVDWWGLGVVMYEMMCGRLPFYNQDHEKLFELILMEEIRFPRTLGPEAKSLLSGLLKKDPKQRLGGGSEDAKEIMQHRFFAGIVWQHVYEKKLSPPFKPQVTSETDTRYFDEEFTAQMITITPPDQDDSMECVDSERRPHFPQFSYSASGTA
T2 sequence (P31749 whole entry E17K): as the sequence (P31749 whole entry) above, with E17K counted along it

Row | SMILES | IC50 [1] [nM] | IC50 (AKT1 WT) [nM] | IC50 (AKT1 E17K) [nM] | IC50 (AKT2) [nM]
1 | Nc1ncccc1-c1nc2ccc(-n3cccn3)nc2n1-c1ccc2c(c1)CC[C@@H]2NC(=O)c1cccc(C=O)c1 [Example 142, (S)—N-(5-(2-(2-aminopyridin-3-yl)-5-(1H-pyrazol-1-yl)-3H-imidazo[4,5-b]pyridin-3-yl)-2,3-dihydro-1H-inden-1-yl)-3-formylbenzamide] | 100 to 2000 | < 10 | 10 to 100 | 10 to 100
2 | Nc1ncccc1-c1nc2ccc(-n3cccn3)nc2n1-c1ccc2c(c1)C1CC1C2NC(=O)c1ccc(O)c(C=O)c1 (centres unmarked) [Example 252, N-(3-(2-(2-aminopyridin-3-yl)-5-(1H-pyrazol-1-yl)-3H-imidazo[4,5-b]pyridin-3-yl)-1,1a,6,6a-tetrahydrocyclopropa[a]inden-6-yl)-3-formyl-4-hydroxybenzamide] | 100 to 2000 | 100 to 2000 | 100 to 2000 | ≥ 2000
3 | Nc1ncccc1-c1nc2ccc(-c3ccccc3)nc2n1-c1ccc2c(c1)CC[C@@H]2NC(=O)c1cc(C=O)c2[nH]nnc2c1 [Example 137, N-[(1S)-5-[2-(2-aminopyridin-3-yl)-5-phenylimidazo[4,5-b]pyridin-3-yl]-2,3-dihydro-1H-inden-1-yl]-7-formyl-1H-1,2,3-benzotriazole-5-carboxamide] | 10 to 100 | < 10 | < 10 | < 10
4 | Cn1ccc(-c2ccc3nc(-c4cccnc4N)n(-c4ccc5c(c4)CC[C@@H]5NC(=O)c4ccc(O)c(C=O)c4)c3n2)n1 [Example 59, (S)—N-(5-(2-(2-aminopyridin-3-yl)-5-(1-methyl-1H-pyrazol-3-yl)-3Himidazo[4,5-b]pyridin-3-yl)-2,3-dihydro-1H-inden-1-yl)-3-formyl-4-hydroxybenzamide] | 10 to 100 | 10 to 100 | 10 to 100 | 100 to 2000
5 | Cc1cnn(-c2ccc3nc(-c4cccnc4N)n(-c4ccc5c(c4)CC[C@@H]5NC(=O)c4ccc(O)c(C=O)c4)c3n2)c1 [Example 77, (S)—N-(5-(2-(2-aminopyridin-3-yl)-5-(4-methyl-1H-pyrazol-1-yl)-3H imidazo[4,5-b]pyridin-3-yl)-2,3-dihydro-1H-inden-1-yl)-3-formyl-4-hydroxybenzamide] | 100 to 2000 | 10 to 100 | 10 to 100 | 100 to 2000
6 | Nc1ncccc1-c1nc2ccc(-c3ccn(C(F)F)n3)nc2n1-c1ccc2c(c1)CC[C@@H]2NC(=O)c1cc(C=O)c(O)cc1F [Example 158, N-[(1S)-5-[2-(2-aminopyridin-3-yl)-5-[1-(difluoromethyl)pyrazol-3-yl]imidazo[4,5-b]pyridin-3-yl]-2,3-dihydro-1H-inden-1-yl]-2-fluoro-5-formyl-4-hydroxybenzamide] | 10 to 100 | 10 to 100 | 10 to 100 | 100 to 2000
7 | Cc1nc(-c2ccc3nc(-c4cccnc4N)n(-c4ccc5c(c4)CC[C@@H]5NC(=O)c4ccc(O)c(C=O)c4)c3n2)no1 [Example 173, N-[(1S)-5-[2-(2-aminopyridin-3-yl)-5-(5-methyl-1,2,4-oxadiazol-3-yl)imidazo[4,5-b]pyridin-3-yl]-2,3-dihydro-1H-inden-1-yl]-3-formyl-4-hydroxybenzamide] | 100 to 2000 | 10 to 100 | 10 to 100 | 100 to 2000
8 | Cc1cc(-n2cccn2)nc2c1nc(-c1cccnc1N)n2-c1ccc2c(c1)CC[C@@H]2NC(=O)c1cc(C=O)c(O)cc1F [Example 202, (S)—N-(5-(2-(2-aminopyridin-3-yl)-7-methyl-5-(1H-pyrazol-1-yl)-3H-imidazo[4,5-b]pyridin-3-yl)-2,3-dihydro-1H-inden-1-yl)-2-fluoro-5-formyl-4-hydroxybenzamide] | 10 to 100 | 10 to 100 | 10 to 100 | 10 to 100
9 | Nc1ncccc1-c1nc2ccc(-n3cc4c(n3)COC4)nc2n1-c1ccc2c(c1)CC[C@@H]2NC(=O)c1ccc(O)c(C=O)c1 [Example 207, N-[(1S)-5-[2-(2-aminopyridin-3-yl)-5-{4H,6H-furo[3,4-c]pyrazol-2-yl}imidazo[4,5-b]pyridin-3-yl]-2,3-dihydro-1H-inden-1-yl]-3-formyl-4-hydroxybenzamide] | 100 to 2000 | 10 to 100 | 10 to 100 | 100 to 2000

Second part, the molecule after the results:

Row | IC50 [1] [nM] | IC50 (AKT1 WT) [nM] | IC50 (AKT1 E17K) [nM] | IC50 (AKT2) [nM] | SMILES
10 | 10 to 100 | 10 to 100 | 10 to 100 | 10 to 100 | Nc1ncccc1-c1nc2ccc(-c3ccccc3)nc2n1-c1ccc2c(c1)CC[C@@H]2NC(=O)c1ccc(O)c(C=O)c1 [Example 5, (S)—N-(5-(2-(2-aminopyridin-3-yl)-5-phenyl-3H-imidazo[4,5-b]pyridin-3-yl)-2,3-dihydro-1H-inden-1-yl)-3-formyl-4-hydroxybenzamide]
11 | 100 to 2000 | 100 to 2000 | 100 to 2000 | 100 to 2000 | Nc1ncccc1-c1nc2ccc(-n3cccn3)nc2n1-c1ccc2c(c1)[C@@H](O)C[C@@H]2NC(=O)c1ccc(O)c(C=O)c1 (single isomer, unassigned) [Example 99]
12 | 100 to 2000 | 100 to 2000 | 10 to 100 | 100 to 2000 | Nc1ncccc1-c1nc2ccc(-c3ncc[nH]3)nc2n1-c1ccc2c(c1)CC[C@@H]2NC(=O)c1ccc(O)c(C=O)c1 [Example 194, N-[(1S)-5-[2-(2-aminopyridin-3-yl)-5-(1H-imidazol-2-yl)imidazo[4,5-b]pyridin-3-yl]-2,3-dihydro-1H-inden-1-yl]-3-formyl-4-hydroxybenzamide]
13 | ≥ 2000 | ≥ 2000 | 100 to 2000 | ≥ 2000 | Nc1ncccc1-c1nc2ccc(-n3cccn3)nc2n1-c1ccc2c(c1)CC[C@@H]2n1c(=O)[nH]c2cc(O)c(C=O)cc2c1=O [Example 238, 3-[(1S)-5-[2-(2-aminopyridin-3-yl)-5-(pyrazol-1-yl)imidazo[4,5-b]pyridin-3-yl]-2,3-dihydro-1H-inden-1-yl]-7-hydroxy-2,4-dioxo-1H-quinazoline-6-carbaldehyde]
14 | 100 to 2000 | 10 to 100 | 10 to 100 | 100 to 2000 | Nc1ncccc1-c1nc2ccc(-c3cccnn3)nc2n1-c1ccc2c(c1)CC[C@@H]2NC(=O)c1ccc(O)c(C=O)c1 [Example 18, N-[(1S)-5-[2-(2-aminopyridin-3-yl)-5-(pyridazin-3-yl)imidazo[4,5-b]pyridin-3-yl]-2,3-dihydro-1H-inden-1-yl]-3-formyl-4-hydroxybenzamide]
15 | 10 to 100 | 10 to 100 | 10 to 100 | 100 to 2000 | Nc1ncccc1-c1nc2ccc(-c3ncco3)nc2n1-c1ccc2c(c1)CC[C@@H]2NC(=O)c1cc(C=O)c(O)c(F)c1F [Example 150, N-[(1S)-5-[2-(2-aminopyridin-3-yl)-5-(1,3-oxazol-2-yl)imidazo[4,5-b]pyridin-3-yl]-2,3-dihydro-1H-inden-1-yl]-2,3-difluoro-5-formyl-4-hydroxybenzamide]
16 | 100 to 2000 | 100 to 2000 | 100 to 2000 | ≥ 2000 | COc1ccc2nc(-c3cccnc3N)n(-c3ccc4c(c3)CC[C@@H]4NC(=O)c3ccc(O)c(C=O)c3)c2n1 [Example 46, (S)—N-(5-(2-(2-aminopyridin-3-yl)-5-methoxy-3H-imidazo[4,5-b]pyridin-3-yl)-2,3-dihydro-1H-inden-1-yl)-3-formyl-4-hydroxybenzamide]
17 | 100 to 2000 | 100 to 2000 | 100 to 2000 | 100 to 2000 | Nc1ncccc1-c1nc2ccc(-n3cccn3)nc2n1-c1ccc2c(c1)CC[C@@H]2NC(=O)c1cc(C=O)c(O)c2ncoc12 [Example 253, N-[(1S)-5-[2-(2-aminopyridin-3-yl)-5-(pyrazol-1-yl)imidazo[4,5-b]pyridin-3-yl]-2,3-dihydro-1H-inden-1-yl]-5-formyl-4-hydroxy-1,3-benzoxazole-7-carboxamide]
18 | 100 to 2000 | 100 to 2000 | 100 to 2000 | 100 to 2000 | Cc1cc(-n2cccn2)nc2c1nc(-c1cccnc1N)n2-c1ccc2c(c1)CC[C@@H]2n1cnc2cc(O)c(C=O)cc2c1=O [Example 220, (S)-3-(5-(2-(2-aminopyridin-3-yl)-7-methyl-5-(1H-pyrazol-1-yl)-3H-imidazo[4,5-b]pyridin-3-yl)-2,3-dihydro-1H-inden-1-yl)-7-hydroxy-4-oxo-3,4-dihydroquinazoline-6-carbaldehyde]
19 | 10 to 100 | 10 to 100 | < 10 | 100 to 2000 | Nc1ncccc1-c1nc2ccc(-n3ccc(F)n3)nc2n1-c1ccc2c(c1)CC[C@@H]2NC(=O)c1cc(C=O)c(O)c(F)c1F [Example 125, (S)—N-(5-(2-(2-aminopyridin-3-yl)-5-(3-fluoro-1H-pyrazol-1-yl)-3H-imidazo[4,5-b]pyridin-3-yl)-2,3-dihydro-1H-inden-1-yl)-2,3-difluoro-5-formyl-4-hydroxybenzamide]
20 | 100 to 2000 | 10 to 100 | 100 to 2000 | 100 to 2000 | Nc1ncccc1-c1nc2ccc(-c3ccccc3)nc2n1-c1ccc2c(c1)CC[C@@H]2NC(=O)c1ccc(O)c(C=O)n1 [Example 89, (S)—N-(5-(2-(2-aminopyridin-3-yl)-5-phenyl-3H-imidazo[4,5-b]pyridin-3-yl)-2,3-dihydro-1H-inden-1-yl)-6-formyl-5-hydroxypicolinamide]
